Laboratory results from ChEMBL document CHEMBL1201862, “PubChem BioAssay data set” (2004).
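Exposure lasted 48 hours, with cells grown in 96-well plates and compounds tested at five concentrations. GI50 = concentration required for 50% inhibition of growth.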 Activity calls are given as the source filed them. No stated cut-off is given here; in the data, active = GI50 up to about 1.1 µM and inactive = higher.

How the values were obtained:
Experiment in all cases: NCI-60 cell line screen, 48 h
BT-549 = tested on: BT-549
HL-60 = tested on: HL-60
Malme-3M = tested on: Malme-3M
SK-MEL-5 = tested on: SK-MEL-5
NCI/ADR-RES = tested on: NCI/ADR-RES
SF-268 = tested on: SF-268
RXF 393 = tested on: RXF 393
U-251 = tested on: U-251
SF-539 = tested on: SF-539
UACC-62 = tested on: UACC-62
IGROV-1 = tested on: IGROV-1
NCI-H226 = tested on: NCI-H226
T47D = tested on: T47D
COLO 205 = tested on: COLO 205
SNB-19 = tested on: SNB-19
HCT-15 = tested on: HCT-15
CCRF-CEM = tested on: CCRF-CEM
M14 = tested on: M14
OVCAR-3 = tested on: OVCAR-3
SW-620 = tested on: SW-620
OVCAR-5 = tested on: OVCAR-5
ACHN = tested on: ACHN
KM12 = tested on: KM12
SK-MEL-28 = tested on: SK-MEL-28
K562 = tested on: K562
MOLT-4 = tested on: MOLT-4
786-0 = tested on: 786-0
HCC 2998 = tested on: HCC 2998
SF-295 = tested on: SF-295
PC-3 = tested on: PC-3
UO-31 = tested on: UO-31
DU-145 = tested on: DU-145
HT-29 = tested on: HT-29
RPMI-8226 = tested on: RPMI-8226
OVCAR-8 = tested on: OVCAR-8
MDA-N = tested on: MDA-N
HCT-116 = tested on: HCT-116
TK-10 = tested on: TK-10
SN12C = tested on: SN12C
MDA-MB-435 = tested on: MDA-MB-435
A498 = tested on: A498
UACC-257 = tested on: UACC-257
MDA-MB-231 = tested on: MDA-MB-231
SK-MEL-2 = tested on: SK-MEL-2
HOP-62 = tested on: HOP-62
NCI-H460 = tested on: NCI-H460
OVCAR-4 = tested on: OVCAR-4
EKVX = tested on: EKVX
HOP-92 = tested on: HOP-92
SNB-75 = tested on: SNB-75
A549 = tested on: A549
CAKI-1 = tested on: CAKI-1
MCF7 = tested on: MCF7
LOX IMVI = tested on: LOX IMVI
SK-OV-3 = tested on: SK-OV-3
NCI-H23 = tested on: NCI-H23
NCI-H522 = tested on: NCI-H522

CCN(CC)CCNc1n[n+]([O-])c2ccccc2[n+]1[O-]
GI50 (BT-549): 17.7 µM (inactive) | GI50 (HL-60): 2.28 µM (inactive) | GI50 (Malme-3M): 8.38 µM (inactive) | GI50 (SK-MEL-5): 1.57 µM (inactive) | GI50 (NCI/ADR-RES): 18.6 µM (inactive) | GI50 (SF-268): 18.9 µM (inactive) | GI50 (RXF 393): 8.63 µM (inactive) | GI50 (U-251): 12.6 µM (inactive) | GI50 (SF-539): 17.7 µM (inactive) | GI50 (UACC-62): 3.96 µM (inactive) | GI50 (IGROV-1): 2.43 µM (inactive) | GI50 (NCI-H226): 9.93 µM (inactive) | GI50 (T47D): 5.32 µM (inactive) | GI50 (COLO 205): 5.52 µM (inactive) | GI50 (SNB-19): 12.5 µM (inactive) | GI50 (HCT-15): 2 µM | GI50 (CCRF-CEM): 3.57 µM (inactive) | GI50 (M14): 10.1 µM (inactive) | GI50 (OVCAR-3): 9.02 µM (inactive) | GI50 (SW-620): 11.9 µM (inactive) | GI50 (OVCAR-5): 14.7 µM (inactive) | GI50 (ACHN): 3.79 µM (inactive) | GI50 (KM12): 9.98 µM (inactive) | GI50 (SK-MEL-28): 39.3 µM (inactive) | GI50 (K562): 3.25 µM (inactive) | GI50 (MOLT-4): 1.73 µM (inactive) | GI50 (786-0): 4.74 µM (inactive) | GI50 (HCC 2998): 3.39 µM (inactive) | GI50 (SF-295): 4.78 µM (inactive) | GI50 (PC-3): 8.53 µM (inactive) | GI50 (UO-31): 17.9 µM (inactive) | GI50 (DU-145): 13.9 µM (inactive) | GI50 (HT-29): 8.93 µM (inactive) | GI50 (RPMI-8226): 3.06 µM (inactive) | GI50 (OVCAR-8): 8.65 µM (inactive) | GI50 (MDA-N): 12.2 µM (inactive) | GI50 (HCT-116): 8.22 µM (inactive) | GI50 (TK-10): 8.89 µM (inactive) | GI50 (SN12C): 3.56 µM (inactive) | GI50 (MDA-MB-435): 22.3 µM (inactive)

CCOC(=O)c1nc2cc(C(F)(F)F)ccc2nc1Nc1ccc(F)cc1
GI50 (BT-549): 25.9 µM (inactive) | GI50 (A498): 28.6 µM (inactive) | GI50 (Malme-3M): > 100 µM (inactive) | GI50 (SK-MEL-5): 47.8 µM (inactive) | GI50 (NCI/ADR-RES): 72.1 µM (inactive) | GI50 (SF-268): > 100 µM (inactive) | GI50 (UACC-257): > 100 µM (inactive) | GI50 (RXF 393): 53.5 µM (inactive) | GI50 (MDA-MB-231): > 100 µM (inactive) | GI50 (U-251): 24.5 µM (inactive) | GI50 (SK-MEL-2): > 100 µM (inactive) | GI50 (HOP-62): 96.6 µM (inactive) | GI50 (SF-539): 19.5 µM (inactive) | GI50 (UACC-62): 25.5 µM (inactive) | GI50 (IGROV-1): 34.8 µM (inactive) | GI50 (NCI-H226): 41.1 µM (inactive) | GI50 (T47D): > 100 µM (inactive) | GI50 (COLO 205): 97.3 µM (inactive) | GI50 (HCT-15): 37.4 µM | GI50 (CCRF-CEM): 19.5 µM (inactive) | GI50 (M14): 49.4 µM (inactive) | GI50 (NCI-H460): 18.2 µM (inactive) | GI50 (OVCAR-3): 44.8 µM (inactive) | GI50 (SW-620): 74.1 µM (inactive) | GI50 (OVCAR-5): > 100 µM (inactive) | GI50 (KM12): > 100 µM (inactive) | GI50 (SK-MEL-28): > 100 µM (inactive) | GI50 (K562): 13.3 µM (inactive) | GI50 (MOLT-4): > 10 µM (inactive) | GI50 (OVCAR-4): 23.6 µM (inactive) | GI50 (786-0): > 100 µM (inactive) | GI50 (EKVX): 68.2 µM (inactive) | GI50 (HOP-92): 10.8 µM (inactive) | GI50 (HCC 2998): 19.6 µM (inactive) | GI50 (SNB-75): 58.2 µM (inactive) | GI50 (A549): 18 µM (inactive) | GI50 (SF-295): 47.2 µM (inactive) | GI50 (PC-3): 32.8 µM (inactive) | GI50 (DU-145): > 100 µM (inactive) | GI50 (HT-29): 97.9 µM (inactive) | GI50 (RPMI-8226): 6.21 µM (inactive) | GI50 (OVCAR-8): 39 µM (inactive) | GI50 (CAKI-1): > 100 µM (inactive) | GI50 (MDA-N): > 100 µM (inactive) | GI50 (HCT-116): 96.8 µM (inactive) | GI50 (MCF7): 85.5 µM (inactive) | GI50 (LOX IMVI): > 100 µM (inactive) | GI50 (SK-OV-3): 94.4 µM (inactive) | GI50 (TK-10): 73.5 µM (inactive) | GI50 (SN12C): > 100 µM (inactive) | GI50 (NCI-H23): 74.1 µM (inactive) | GI50 (MDA-MB-435): > 100 µM (inactive)

CCC(CCCCC1CC[C@H]2CC(=O)C[C@@H]12)OC (some centres not stated)
GI50 (BT-549): > 100 µM (inactive) | GI50 (A498): > 100 µM (inactive) | GI50 (HL-60): 36.7 µM (inactive) | GI50 (SK-MEL-5): 79.8 µM (inactive) | GI50 (NCI/ADR-RES): 71.1 µM (inactive) | GI50 (SF-268): > 100 µM (inactive) | GI50 (UACC-257): 72.3 µM (inactive) | GI50 (RXF 393): > 100 µM (inactive) | GI50 (MDA-MB-231): > 100 µM (inactive) | GI50 (U-251): > 100 µM (inactive) | GI50 (SK-MEL-2): > 100 µM (inactive) | GI50 (SF-539): > 100 µM (inactive) | GI50 (IGROV-1): > 100 µM (inactive) | GI50 (NCI-H226): > 100 µM (inactive) | GI50 (T47D): > 100 µM (inactive) | GI50 (COLO 205): > 100 µM (inactive) | GI50 (SNB-19): > 100 µM (inactive) | GI50 (HCT-15): > 100 µM | GI50 (CCRF-CEM): 79.8 µM (inactive) | GI50 (NCI-H460): > 100 µM (inactive) | GI50 (OVCAR-3): > 100 µM (inactive) | GI50 (SW-620): > 100 µM (inactive) | GI50 (OVCAR-5): > 100 µM (inactive) | GI50 (ACHN): > 100 µM (inactive) | GI50 (SK-MEL-28): > 100 µM (inactive) | GI50 (K562): 26.5 µM (inactive) | GI50 (MOLT-4): > 100 µM (inactive) | GI50 (NCI-H522): > 100 µM (inactive) | GI50 (786-0): > 100 µM (inactive) | GI50 (HOP-92): > 100 µM (inactive) | GI50 (HCC 2998): > 100 µM (inactive) | GI50 (SNB-75): > 100 µM (inactive) | GI50 (A549): > 100 µM (inactive) | GI50 (SF-295): > 100 µM (inactive) | GI50 (DU-145): > 100 µM (inactive) | GI50 (HT-29): > 100 µM (inactive) | GI50 (OVCAR-8): > 100 µM (inactive) | GI50 (CAKI-1): > 100 µM (inactive) | GI50 (HCT-116): > 100 µM (inactive) | GI50 (MCF7): > 100 µM (inactive) | GI50 (LOX IMVI): > 100 µM (inactive) | GI50 (SK-OV-3): > 100 µM (inactive) | GI50 (TK-10): > 100 µM (inactive) | GI50 (SN12C): > 100 µM (inactive) | GI50 (NCI-H23): > 100 µM (inactive)
